For one test, the system named is PINK1-V5. Briefly: PINK1-V5 accumulation in cortical neurons, immunoblot. As to conditions: 1 μM CCCP, 6 hours. It counts as cell-based, rat. The source says: HeLa YFP-Parkin, E18 Rat cortical neurons, PINK1^+/+ SV40 transformed MEFs cells, PINK1^−/− SV40 transformed MEF, M17 neuroblastoma control shRNA, M17 neuroblastoma PINK1, Mfn1/2^−/− MEF, and Parl^−/− MEF cell lines have been described previously (Narendra (2008) J Cell Biol 183: 795-803). PINK1^+/+ and PINK1^−/− primary MEFs were isolated from embryos using a standard protocol (Gautier (2008) Proc Natl Acad Sci USA 105: 11364-11369). Parkin^+/+ and Parkin^−/− transformed MEFs were created by isolation of primary cells from embryos of B6.129S4-Park2^tm1Shn/J mice (Jackson Labs), using a standard protocol (Gautier (2008) Proc Natl Acad Sci USA 105: 11364-11369), followed by retroviral transduction of SV40 (Applied Biological Materials, Inc.). YFP-Parkin, YFP-Parkin mutants, mCherry-Parkin, PINK1-YFP, PINK1 KD-YFP, PINK1 Δ1-110-YFP, and Opa3-PINK1 Δ1-110-YFP are in C1 or N1 Clontech vectors. PINK1WT-V5, PINK1 KD-V5, and PINK1 Δ1-156-V5 are in pDest40 vector (Invitrogen). PINK1 patient mutations are in the pLenti-V5 vector (Invitrogen). PINK1-myc is in a pCMBTNT vector (Promega). The PARL shRNA construct targeting (5′ […] 3′) is in the pSuper-GFP vector. […]
On the technique in general: In western blotting, separated proteins are transferred to a membrane and probed.

In a further test the test system is HEK293 cells. The test is described as follows: Endogenous Parkin localization by immunostaining after depolarization. As to conditions: 10 μM CCCP. In kind it is cell-based. As to the method:
Mitochondrial fission has been linked to the function of Parkin and to the autophagy of small defective mitochondria that lack membrane potential. To test whether mitochondrial depolarization causes Parkin accumulation on mitochondria, HEK293 cells were treated with the mitochondrial uncoupler carbonyl cyanide m-chlorophenylhydrazone (CCCP). Within 1 hour of adding CCCP, endogenous Parkin was recruited to mitochondria in the majority of cells (FIG. 1B) and increased appearance in the heavy membrane pellet on Western blots (FIG. 1C). […] As with endogenous Parkin in HEK293 cells, CCCP exposure induced the redistribution of YFP-Parkin from the cytosol to the mitochondria (FIGS. 1E and F). […] The mitochondrial translocation of Parkin caused by mitochondrial depolarization was also assayed by fluorescence loss in photobleaching (FLIP).
Cultured cells seeded in borosilicate chamber slides (Thermo Fisher Scientific) were transfected or cotransfected with YFP-Parkin, ECFP-Parkin, mCherry-Parkin, DsRed-Mito (Clontech Laboratories, Inc.), pcDNA3.1 (Invitrogen), vMIA, and/or Drp1K38A constructs using Fugene 6 (Roche). Parkin-myc was a gift from M. Cookson (National Institutes of Health, Bethesda, Md.). Cells were fixed 12-24 hours after transfection with 4% paraformaldehyde in PBS. […]

The subject of another test is COXICA65 cybrid cells. The test is described as follows: COXI immunostaining of cybrid cells. As to conditions: Parkin-enriched cybrid cells, 67 days without selection, cells without detectable YFP-Parkin. It counts as cell-based, human.

Procedure for COXICA65 cybrid cells: Cells for fluorescence microscopy were transfected with Fugene 6 (Roche). Cells were fixed with 4% paraformaldehyde (EMS) in PBS, treated with 0.15% of TritonX-100 and blocked with 10% BSA. Cells were incubated with rabbit anti-Tom20 (1:1000) (Santa Cruz), mouse anti-FLAG (Invitrogen) or mouse anti-COXI (Invitrogen) for 2 hs, washed with 10% BSA for 3 times, incubated with AlexaFluor Goat anti-rabbit or anti-mouse IgG (1:500)(Invitrogen) for 1 h and washed with PBS for 10 minutes 2 times. The samples were stored in PBS and imaged on a Zeiss LSM510 microscope (63×/1.4 Oil DIC Plan Apo objective, 40×/1.3 Oil Plan Neo-Fluar objective).

In the case of `N#CC(C#N)=NNc1cccc(Cl)c1` [CCCP, carbonyl cyanide m-chlorophenylhydrazone], the PINK1-V5 level result with PINK1-V5 is reported as “increases”. Moreover, the “time to recruitment of endogenous Parkin to mitochondria in the majority of cells” value with HEK293 cells was no more than 1 h.

B1: YFP-Parkin: YFP-tagged Parkin E3 ligase expressed from a transfected vector (protein, UniProt O60260 1-465, looked up)
E3 ubiquitin-protein ligase …: MIVFVRFNSSHGFPVEVDSDTSIFQLKEVVAKRQGVPADQLRVIFAGKELRNDWTVQNCDLDQQSIVHIVQRPWRKGQEMNATGGDDPRNAAGGCEREPQSLTRVDLSSSVLPGDSVGLAVILHTDSRKDSPPAGSPAGRSIYNSFYVYCKGPCQRVQPGKLRVQCSTCRQATLTLTQGPSCWDDVLIPNRMSGECQSPHCPGTSAEFFFKCGAHPTSDKETSVALHLIATNSRNITCITCTDVRSPVLVFQCNSRHVICLDCFHLYCVTRLNDRQFVHDPQLGYSLPCVAGCPNSLIKELHHFRILGEEQYNRYQQYGAEECVLQMGGVLCPRPGCGAGLLPEPDQRKVTCEGGNGLGCGFAFCRECKEAYHEGECSAVFEASGTTTQAYRVDERAAEQARWEAASKETIKKTTKPCPRCHVPVEKNGGCMHMKCPQPQCRLEWCWNCGCEWNRVCMGDHWFDV
modifications: YFP fusion
notes: YFP-tagged Parkin E3 ligase expressed from a transfected vector
Consider B1, for which, in the test with COXICA65 cybrid cells, the “COXI completely negative cells” value turned out to be 27% and the COXI positive cells result is listed as “Approximately 73%”.

The values are drawn from patent US20120277286A1, “COMPOSITIONS AND METHODS FOR THE TREATMENT OR PREVENTION OF MITOCHONDRIAL DISEASES” (The Government of the USA, as represented by the Secretary, …, priority 2009, published 2012).
